Experimental data as given in patent US20080234262A1 (Wyeth, priority 2007, published 2008).

Molecular target: PI3K (Homo sapiens, UniProt P42336)
Experiment: Fluorescence polarization assay for PI3K;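 also: PI3K kinase reaction on PIP2 with ATP, 30-60 min, product sensed by GST-GRP with red probe in fluorescence polarization (mP), controls without enzyme and at zero time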
Assay type: biochemical
Details: PI3Kα; read-out: PI3Kα IC50

Sequence of PI3K (P42336 whole entry): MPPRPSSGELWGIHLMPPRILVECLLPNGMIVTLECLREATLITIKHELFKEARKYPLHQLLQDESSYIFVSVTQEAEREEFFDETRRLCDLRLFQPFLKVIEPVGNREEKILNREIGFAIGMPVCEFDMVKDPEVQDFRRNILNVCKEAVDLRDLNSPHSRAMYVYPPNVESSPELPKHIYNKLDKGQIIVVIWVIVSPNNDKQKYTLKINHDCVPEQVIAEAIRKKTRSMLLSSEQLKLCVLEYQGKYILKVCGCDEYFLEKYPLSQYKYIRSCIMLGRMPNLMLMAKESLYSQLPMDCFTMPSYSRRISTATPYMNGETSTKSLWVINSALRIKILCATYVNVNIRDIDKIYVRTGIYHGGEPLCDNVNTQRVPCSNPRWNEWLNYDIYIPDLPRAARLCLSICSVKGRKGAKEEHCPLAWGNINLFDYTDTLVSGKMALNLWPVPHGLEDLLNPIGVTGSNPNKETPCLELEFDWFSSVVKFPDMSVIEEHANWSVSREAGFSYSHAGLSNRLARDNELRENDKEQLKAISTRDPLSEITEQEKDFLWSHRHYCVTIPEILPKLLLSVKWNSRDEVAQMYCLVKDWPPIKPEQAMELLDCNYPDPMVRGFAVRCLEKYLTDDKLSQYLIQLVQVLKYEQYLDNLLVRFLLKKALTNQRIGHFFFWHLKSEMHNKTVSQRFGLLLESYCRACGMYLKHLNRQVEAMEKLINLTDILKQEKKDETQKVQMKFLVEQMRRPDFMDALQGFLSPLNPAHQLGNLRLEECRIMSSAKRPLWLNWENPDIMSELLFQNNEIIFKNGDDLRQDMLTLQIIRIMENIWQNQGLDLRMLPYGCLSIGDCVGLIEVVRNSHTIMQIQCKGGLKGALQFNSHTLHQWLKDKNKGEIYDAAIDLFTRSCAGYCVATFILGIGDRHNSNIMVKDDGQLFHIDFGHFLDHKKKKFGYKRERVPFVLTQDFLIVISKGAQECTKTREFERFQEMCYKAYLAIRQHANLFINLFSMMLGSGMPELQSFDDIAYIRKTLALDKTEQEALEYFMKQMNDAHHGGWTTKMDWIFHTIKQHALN
Sequence of PI3K (P27986 whole entry partner): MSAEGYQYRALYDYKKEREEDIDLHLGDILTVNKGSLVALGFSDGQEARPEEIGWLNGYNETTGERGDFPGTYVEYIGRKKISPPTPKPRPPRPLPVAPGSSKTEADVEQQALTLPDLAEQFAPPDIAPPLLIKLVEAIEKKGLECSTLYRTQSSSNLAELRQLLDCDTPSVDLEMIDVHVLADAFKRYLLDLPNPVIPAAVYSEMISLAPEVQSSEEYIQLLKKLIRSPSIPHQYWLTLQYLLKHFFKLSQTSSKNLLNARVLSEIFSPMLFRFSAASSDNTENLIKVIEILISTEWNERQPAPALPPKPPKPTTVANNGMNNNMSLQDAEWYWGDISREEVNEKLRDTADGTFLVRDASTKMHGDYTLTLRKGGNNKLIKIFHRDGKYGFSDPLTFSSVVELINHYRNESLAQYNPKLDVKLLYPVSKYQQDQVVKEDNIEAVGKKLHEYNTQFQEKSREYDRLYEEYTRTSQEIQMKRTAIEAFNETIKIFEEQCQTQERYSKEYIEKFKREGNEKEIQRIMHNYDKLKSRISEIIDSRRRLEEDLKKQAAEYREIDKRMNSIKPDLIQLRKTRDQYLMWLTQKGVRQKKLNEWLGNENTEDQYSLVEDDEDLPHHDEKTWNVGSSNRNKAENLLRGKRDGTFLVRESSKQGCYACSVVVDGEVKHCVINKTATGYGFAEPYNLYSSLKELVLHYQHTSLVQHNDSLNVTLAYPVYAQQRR

| IC50 | SMILES |
| --- | --- |
| 4920 nM | CNC(=O)Nc1ccc(-c2nc(N3CCOCC3)c3cnn(C4CCCCO4)c3n2)cc1 (stereo not drawn) [Example 235, 1-methyl-3-{4-[4-morpholin-4-yl-1-(tetrahydro-2H-pyran-2-yl)-1H-pyrazolo[3,4-d]pyrimidin-6-yl]phenyl}urea] |
| 37 nM | Oc1cncc(-c2nc(N3CCOCC3)c3cnn(C4CCN(Cc5ccccc5)CC4)c3n2)c1 [Compound 250, 5-[1-(1-benzylpiperidin-4-yl)-4-morpholin-4-yl-1H-pyrazolo[3,4-d]pyrimidin-6-yl]pyridin-3-ol] |
| 424 nM | CCNC(=O)Nc1ccc(-c2nc(N3CCOCC3)c3cnn(C4CCN(Cc5cccnc5)CC4)c3n2)cc1F [Example 372, 1-ethyl-3-(2-fluoro-4-{4-morpholin-4-yl-1-[1-(pyridin-3-ylmethyl)piperidin-4-yl]-1H-pyrazolo[3,4-d]pyrimidin-6-yl}phenyl)urea] |
| 533 nM | O=C(NCc1ccccc1)Nc1ccc(-c2nc(N3CCOCC3)c3cnn(C4CCN(Cc5ccccc5)CC4)c3n2)cc1 [Compound 258, 1-benzyl-3-{4-[1-(1-benzylpiperidin-4-yl)-4-morpholin-4-yl-1H-pyrazolo[3,4-d]pyrimidin-6-yl]phenyl}urea] |
| 198 nM | CNC(=O)Nc1ccc(-c2nc(N3CCOCC3)c3cnn(C4CCN(C(=O)c5cnccn5)CC4)c3n2)cc1 [Compound 666, 1-methyl-3-(4-{4-morpholin-4-yl-1-[1-(pyrazin-2-ylcarbonyl)piperidin-4-yl]-1H-pyrazolo[3,4-d]pyrimidin-6-yl}phenyl)urea] |
| 440 nM | COc1cccc(C(=O)Nc2ccc(-c3nc(N4CCOCC4)c4cn[nH]c4n3)cc2)c1 [Compound 277, 3-methoxy-N-[4-(4-morpholin-4-yl-1H-pyrazolo[3,4-d]pyrimidin-6-yl)phenyl]benzamide] |
| 57 nM | CNC(=O)Nc1ccc(-c2nc(N3CCOCC3)c3cnn(C4CCN(Cc5ccc(OC)c(O)c5)CC4)c3n2)cc1 [Compound 643, 1-(4-{1-[1-(3-hydroxy-4-methoxybenzyl)piperidin-4-yl]-4-morpholin-4-yl-1H-pyrazolo[3,4-d]pyrimidin-6-yl}phenyl)-3-methylurea] |
| 939 nM | c1cc2cc(-c3nc(N4CCOCC4)c4cn[nH]c4n3)ccc2[nH]1 [Compound 929, 6-(1H-indol-5-yl)-4-morpholin-4-yl-1H-pyrazolo[3,4-d]pyrimidine] |
| 3130 nM | NC(=O)Cc1ccc(-c2nc(N3CCOCC3)c3cnn(C4CCN(Cc5ccccc5)CC4)c3n2)cc1 [Compound 370, 2-{4-[1-(1-benzylpiperidin-4-yl)-4-morpholin-4-yl-1H-pyrazolo[3,4-d]pyrimidin-6-yl]phenyl}acetamide] |
| 357 nM | O=C(Nc1ccc(-c2nc(N3CCOCC3)c3cnn(C4CCN(C(=O)c5cccnc5)CC4)c3n2)cc1)NC1CC1 [Compound 659, 1-cyclopropyl-3-(4-{4-morpholin-4-yl-1-[1-(pyridin-3-ylcarbonyl)piperidin-4-yl]-1H-pyrazolo[3,4-d]pyrimidin-6-yl}phenyl)urea] |
| 9020 nM | COC(=O)Nc1cccc(-c2nc(N3CCOCC3)c3cnn(C4CCN(Cc5ccccc5)CC4)c3n2)c1 [Compound 227, methyl {3-[1-(1-benzylpiperidin-4-yl)-4-morpholin-4-yl-1H-pyrazolo[3,4-d]pyrimidin-6-yl]phenyl}carbamate] |
| 4990 nM | Nc1cccc(-c2nc(N3CCOCC3)c3cnn(C4CCN(C(=O)c5cccnc5)CC4)c3n2)n1 [Compound 680, 6-{4-morpholin-4-yl-1-[1-(pyridin-3-ylcarbonyl)piperidin-4-yl]-1H-pyrazolo[3,4-d]pyrimidin-6-yl}pyridin-2-amine] |
| 4920 nM | Nc1ccc(-c2nc(N3CCOCC3)c3cnn(C4CCCCO4)c3n2)cc1 (stereo not drawn) [Compound 934, 4-[4-morpholin-4-yl-1-(tetrahydro-2H-pyran-2-yl)-1H-pyrazolo[3,4-d]pyrimidin-6-yl]aniline] |
| 2000 nM | COCOc1cncc(-c2nc(N3CCOCC3)c3cnn(C4CCN(Cc5ccccc5)CC4)c3n2)c1 [Compound 249, 1-(1-benzylpiperidin-4-yl)-6-[5-(methoxymethoxy)pyridin-3-yl]-4-morpholin-4-yl-1H-pyrazolo[3,4-d]pyrimidine] |
| 1160 nM | c1ccc(CN2CCC(n3ncc4c(N5CCOCC5)nc(-c5ccc6c(c5)OCO6)nc43)CC2)cc1 [Example 33] |
| 3620 nM | Nc1cc(F)c(-c2nc(N3CCOCC3)c3cnn(C4CCN(C(=O)c5cccnc5)CC4)c3n2)cc1F [Compound 464, 2,5-difluoro-4-{4-morpholin-4-yl-1-[1-(pyridin-3-ylcarbonyl)piperidin-4-yl]-1H-pyrazolo[3,4-d]pyrimidin-6-yl}aniline] |

| IC50 | SMILES |
| --- | --- |
| 199 nM | CNC(=O)Nc1ccc(-c2nc(N3CCOCC3)c3cnn(C4CCN(Cc5ccccc5)CC4)c3n2)cc1F [Example 348, 1-{4-[1-(1-benzylpiperidin-4-yl)-4-morpholin-4-yl-1H-pyrazolo[3,4-d]pyrimidin-6-yl]-2-fluorophenyl}-3-methylurea] |
| 173 nM | O=C(Nc1ccccc1)Nc1cc(F)c(-c2nc(N3CCOCC3)c3cnn(C4CCN(C(=O)c5cccnc5)CC4)c3n2)cc1F [Compound 713, 1-(2,5-difluoro-4-{4-morpholin-4-yl-1-[1-(pyridin-3-ylcarbonyl)piperidin-4-yl]-1H-pyrazolo[3,4-d]pyrimidin-6-yl}phenyl)-3-phenylurea] |
| 2270 nM | CN(C)CC(=O)Nc1ccc(-c2nc(N3CCOCC3)c3cn[nH]c3n2)cc1 [Compound 958, N2,N2-dimethyl-N-[4-(4-morpholin-4-yl-1H-pyrazolo[3,4-d]pyrimidin-6-yl)phenyl]glycinamide] |
| 1540 nM | CNC(=O)Nc1cc(F)c(-c2nc(N3CCOCC3)c3cnn(C4CCN(C(=O)c5cccnc5)CC4)c3n2)cc1F [Example 465, 1-(2,5-difluoro-4-{4-morpholin-4-yl-1-[1-(pyridin-3-ylcarbonyl)piperidin-4-yl]-1H-pyrazolo[3,4-d]pyrimidin-6-yl}phenyl)-3-methylurea] |
| 36 nM | Oc1cncc(-c2nc(N3CCOCC3)c3cnn(C4CCN(Cc5ccccc5)CC4)c3n2)c1 [Compound 930, 5-[1-(1-benzylpiperidin-4-yl)-4-morpholin-4-yl-1H-pyrazolo[3,4-d]pyrimidin-6-yl]pyridin-3-ol] |
| 14 nM | O=C(Nc1ccccc1)Nc1ccc(-c2nc(N3CCOCC3)c3cnn(C4CCN(C(=O)c5cccnc5)CC4)c3n2)cc1 [Example 343, 1-(4-{4-morpholin-4-yl-1-[1-(pyridin-3-ylcarbonyl)piperidin-4-yl]-1H-pyrazolo[3,4-d]pyrimidin-6-yl}phenyl)-3-phenylurea] |
| 382 nM | CNC(=NC#N)Nc1ccc(-c2nc(N3CCOCC3)c3cnn(C4CCN(C(=O)c5cccnc5)CC4)c3n2)cc1 [Compound 656, 2-cyano-1-methyl-3-(4-{4-morpholin-4-yl-1-[1-(pyridin-3-ylcarbonyl)piperidin-4-yl]-1H-pyrazolo[3,4-d]pyrimidin-6-yl}phenyl)guanidine] |
| 585 nM | COC(=O)Nc1ccc(-c2nc(N3CCOCC3)c3cnn(C4CCN(CC(=O)c5ccccc5)CC4)c3n2)cc1 [Compound 701, methyl (4-{4-morpholin-4-yl-1-[1-(2-oxo-2-phenylethyl)piperidin-4-yl]-1H-pyrazolo[3,4-d]pyrimidin-6-yl}phenyl)carbamate] |
| 888 nM | COC(=O)Nc1ccc(-c2nc(N3CCOCC3)c3cnn(C4CCN(C(=O)c5ccccc5OC)CC4)c3n2)cc1 [Compound 690, methyl (4-{1-[1-(2-methoxybenzoyl)piperidin-4-yl]-4-morpholin-4-yl-1H-pyrazolo[3,4-d]pyrimidin-6-yl}phenyl)carbamate] |
| 786 nM | COC(=O)Nc1ccc(-c2nc(N3CCOCC3)c3cnn(C4CCN(Cc5ccccc5Cl)CC4)c3n2)cc1 [Compound 699, methyl (4-{1-[1-(2-chlorobenzyl)piperidin-4-yl]-4-morpholin-4-yl-1H-pyrazolo[3,4-d]pyrimidin-6-yl}phenyl)carbamate] |
| 43 nM | CNC(=O)Nc1ccc(-c2nc(N3CCOCC3)c3cnn(C4CCN(Cc5cccc(OC)c5)CC4)c3n2)cc1 [Compound 645, 1-(4-{1-[1-(3-methoxybenzyl)piperidin-4-yl]-4-morpholin-4-yl-1H-pyrazolo[3,4-d]pyrimidin-6-yl}phenyl)-3-methylurea] |
| 287 nM | CNC(=O)Nc1ccc(-c2nc(N3CCOCC3)c3cnn(C4CCN(C(=O)COC)CC4)c3n2)cc1 [Compound 718, 1-(4-{1-[1-(methoxyacetyl)piperidin-4-yl]-4-morpholin-4-yl-1H-pyrazolo[3,4-d]pyrimidin-6-yl}phenyl)-3-methylurea] |
| 119 nM | Nc1ccc(-c2nc(N3CCOCC3)c3cnn(C4CCCCO4)c3n2)cc1 (stereo not drawn) [Compound 264, 4-[4-morpholin-4-yl-1-(tetrahydro-2H-pyran-2-yl)-1H-pyrazolo[3,4-d]pyrimidin-6-yl]aniline] |
| 3560 nM | O=C(Nc1cc(F)c(-c2nc(N3CCOCC3)c3cnn(C4CCN(C(=O)c5cccnc5)CC4)c3n2)cc1F)NC1CC1 [Compound 712, 1-cyclopropyl-3-(2,5-difluoro-4-{4-morpholin-4-yl-1-[1-(pyridin-3-ylcarbonyl)piperidin-4-yl]-1H-pyrazolo[3,4-d]pyrimidin-6-yl}phenyl)urea] |
| 160 nM | CNC(=O)Nc1ccc(-c2nc(N3CCOCC3)c3cnn(C4CCN(C(=O)c5ccncc5)CC4)c3n2)cc1 [Compound 661, 1-{4-[1-(1-isonicotinoylpiperidin-4-yl)-4-morpholin-4-yl-1H-pyrazolo[3,4-d]pyrimidin-6-yl]phenyl}-3-methylurea] |
| 1010 nM | COC(=O)Nc1ccc(-c2nc(N3CCOCC3)c3cnn(C4CCN(C(=O)c5ccccc5)CC4)c3n2)cc1 [Compound 686, methyl {4-[1-(1-benzoylpiperidin-4-yl)-4-morpholin-4-yl-1H-pyrazolo[3,4-d]pyrimidin-6-yl]phenyl}carbamate] |

| SMILES | IC50 |
| --- | --- |
| NC(=O)Nc1cccc(-c2nc(N3CCOCC3)c3cnn(C4CCN(Cc5ccccc5)CC4)c3n2)c1 [Compound 229, N-{3-[1-(1-benzylpiperidin-4-yl)-4-morpholin-4-yl-1H-pyrazolo[3,4-d]pyrimidin-6-yl]phenyl}urea] | 2170 nM |
